Laboratory results from patent US20100075856A1, “METHOD FOR INCREASING THE DRY BIOMASS OF PLANTS” (BASF SE, priority 2006, published 2010).

Tests used:
Type in all cases: in vivo
[1] = tested on: Soybean of the variety Conquista; experiment: Biomass of soybean grains, field trial, disease conditions (example 2.2); details: without epoxiconazole pre-treatment, grains 13 to 22% residual moisture
Method: (§1) Soybean of the variety Conquista was cultivated under customary conditions at Campinas (Brazil) in 2005/2006. One part of the trial was treated with pyraclostrobin (in the form of the commercially available product F500 from BASF; diluted with water to a concentration of 0.42 g/l) at the growing stage 61/62 and the other part at GS 65/67 by spraying about 350 l/ha (150 g of active compound per ha). Control plants were treated at GS 61/62 and 65/67, respectively, with a formulation according to that of F500 but without the active compound pyraclostrobin (“blank formulation”). One week prior to the treatment either with the active formulation or with the blank formulation, the plants were treated with epoxiconazole in order to ensure absence of fungal stress. 56 days after the application at GS 65/67, the plants were harvested and the soybean grains having a residual moisture content of 13 to 18% by weight, based on the total weight of the grains, were weighed.
The experiments were carried out according to example 2.1, however without the epoxiconazole pre-treatment. The residual moisture content was 13 to 22% by weight, based on the total weight of the grains.

[2] = tested on: Corn of the cultivar DKB 390; experiment: Biomass of corn grains, field trial, free disease conditions, another field (example 1.3); details: corn DKB 390, another field
Method: (§2) Corn of the cultivar DKB 390 was cultivated under customary conditions (150 kg/ha nitrogen) at Campinas (Brazil) in 2005/2006. One part of the trial was treated with pyraclostrobin (in the form of the commercially available product F500 from BASF; diluted with water to a concentration 0.5 g/l) at the growing stage 34/35 and the other part at GS 55/57 by spraying about 300 l/ha (150 g of active compound per ha). Control plants were treated at GS 35/35 and 55/57, respectively, with a formulation according to that of F500 but without the active compound pyraclostrobin (“blank formulation”). One week prior to the treatment either with the active formulation or with the blank formulation, the plants were treated with epoxiconazole in order to ensure absence of fungal stress. 55 days after the application at GS 55/57, the plants were harvested and the corn grains having a residual moisture content of 14 to 20% by weight, based on the total weight of the grains, were weighed.
The experiments were carried out according to example 1.1, however using another field.

[3] = tested on: Corn of the cultivar DKB 390; experiment: Biomass of corn grains, field trial, free disease conditions (example 1.1); details: corn DKB 390, 150 g of active compound per ha, spray, epoxiconazole pre-treatment, grains 14 to 20% residual moisture
Method: as §2

[4] = tested on: Corn of the cultivar DKB 390; experiment: Biomass of corn grains, field trial, disease conditions (example 1.2); details: corn DKB 390, 150 g of active compound per ha, without epoxiconazole pre-treatment, grains 14 to 22% residual moisture
Method: as §2
The experiments were carried out according to example 1.1, however without the epoxiconazole pre-treatment. Moreover, the concentration of pyraclostrobin in the spray liquor was 1 g/l and 150 l/ha were sprayed (150 g of active compound per ha). The residual moisture content of the grains was 14 to 22% by weight, based on the total weight of the grains.

[5] = tested on: corn of the cultivar DKB 455; experiment: Biomass of corn grains, field trial, free disease conditions (example 1.4)
Method: as §2
The experiments were carried out according to example 1.1, however using corn of the cultivar DKB 455.

[6] = tested on: Soybean of the variety Conquista; experiment: Biomass of soybean grains, field trial, free disease conditions (example 2.1); details: spray, epoxiconazole pre-treatment, grains 13 to 18% residual moisture
Method: as §1

[7] = treated at GS 61/62, 150 g of active compound per ha
[8] = treated at GS 65/67, 150 g of active compound per ha

With pyraclostrobin the Yield [1, 7] was 2163 kg/ha, the Yield [1, 8] was 2120 kg/ha and the Yield ([2]; treated at GS 34/35, 150 g of active compound per ha) was 8.0 ton/ha. It also gave a Yield ([2]; treated at GS 55/57, 150 g of active compound per ha) of 8.3 ton/ha, a Yield ([3]; treated at GS 34/35) of 10.4 ton/ha and a Yield ([3]; treated at GS 55/57) of 10.6 ton/ha. For the same substance, the Yield ([4]; treated at GS 34/35) was 8.7 ton/ha, the Yield ([4]; treated at GS 55/57) was 8.8 ton/ha and the Yield ([5]; corn DKB 455, treated at GS 34/35, 150 g of active compound per ha) was 8.6 ton/ha. It also gave a Yield ([5]; corn DKB 455, treated at GS 55/57, 150 g of active compound per ha) of 9.2 ton/ha, a Yield [6, 7] of 2254 kg/ha and a Yield [6, 8] of 2209 kg/ha.
